Test results taken from patent US9169215B2, “LPAR—substituted cyanopyrazole compounds” (Hoffmann-La Roche Inc., priority 2012, dated 2015).

What was measured:
[1] = molecular target: human recombinant LPA1 Lysophospholipid receptor (Homo sapiens, UniProt Q92633); experiment: Calcium flux assay using FLIPR, LPA1 antagonist activity; format: cell-based; details: for IC50: ChemiScreen calcium-optimized stable cell line, inhibition of agonist-induced calcium flux
Experimental: (§1) Calcium Flux Assay Using Fluorometric Imaging Plate Reader (FLIPR)
Cell Culture Conditions: The ChemiScreen Calcium-optimized stable cell line containing the human recombinant LPA1 Lysophospholipid receptor was purchased from Chemicon International, Inc./Millipore. The cells were cultured in DMEM-high glucose supplemented with 10% fetal bovine serum, 2 mM glutamine, 100 U/mL penicillin/100 μg/mL streptomycin, 1× non-essential amino acids, 10 mM HEPES and 0.25 mg/mL Geneticin. Cells were harvested with trypsin-EDTA and counted using ViaCount reagent. The cell suspension volume was adjusted to 2.0×10^5 cells/mL with complete growth media. Aliquots of 50 μL were dispensed into 384 well black/clear tissue culture treated plates (BD) and the microplates were placed in a 37° C. incubator overnight. The following day plates were used in the assay.
Dye Loading and Assay: Loading Buffer (FLIPR Calcium-4, Molecular Devices) was prepared by dissolving the contents of one bottle into 100 mL Hank's Balanced Salt Solution containing 20 mM HEPES and 2.5 mM probenecid. Plates were loaded onto Biotek plate washer and growth media was removed and replaced with 20 μL of Hank's Balanced Salt Solution containing 20 mM HEPES and 2.5 mM probenecid, followed by 25 μL of Loading Buffer. The plates were then incubated for 30 minutes at 37° C.
During the incubation, test compounds were prepared by adding 90 μL of HBSS/20 mM HEPES/0.1% BSA buffer to 2 μL of serially diluted compounds. To prepare serial dilutions, 10 mM stocks of compounds were prepared in 100% DMSO. The compound dilution plate was set up as follows: well #1 received 29 μL of stock compound and 31 μL DMSO; wells 2-10 received 40 μL of DMSO; mixed and transferred 20 μL of solution from well #1 into well #2; continued with 1:3 serial dilutions out 10 steps; transferred 2 μL of diluted compound into duplicate wells of 384 well “assay plate” and then added the 90 μL of buffer.
(§2) After incubation, both the cell and “assay” plates were brought to the FLIPR and 20 μL of the diluted compounds were transferred to the cell plates by the FLIPR. Compound addition was monitored by FLIPR to detect any agonist activity of the compounds. Plates were then incubated for 30 minutes at RT protected from light. After the incubation, plates were returned to the FLIPR and 20 μL of 4.5× concentrated agonist was added to the cell plates. During the assay, fluorescence readings were taken simultaneously from all 384 wells of the cell plate every 1.5 seconds. Five readings were taken to establish a stable baseline, then 20 μL of sample was rapidly (30 μL/sec) and simultaneously added to each well of the cell plate. The fluorescence was continuously monitored before, during and after sample addition for a total elapsed time of 100 seconds. Responses (increase in peak fluorescence) in each well following agonist addition was determined. The initial fluorescence reading from each well, prior to ligand stimulation, was used as zero baseline value for the data from that well. The responses were expressed as % inhibition of the buffer control.

LPA3 = molecular target: T1, LPA3 (Homo sapiens, UniProt Q9UBY5); experiment: Calcium flux assay using FLIPR, LPA3 antagonist activity; format: cell-based
T1 sequence (Q9UBY5 1-353): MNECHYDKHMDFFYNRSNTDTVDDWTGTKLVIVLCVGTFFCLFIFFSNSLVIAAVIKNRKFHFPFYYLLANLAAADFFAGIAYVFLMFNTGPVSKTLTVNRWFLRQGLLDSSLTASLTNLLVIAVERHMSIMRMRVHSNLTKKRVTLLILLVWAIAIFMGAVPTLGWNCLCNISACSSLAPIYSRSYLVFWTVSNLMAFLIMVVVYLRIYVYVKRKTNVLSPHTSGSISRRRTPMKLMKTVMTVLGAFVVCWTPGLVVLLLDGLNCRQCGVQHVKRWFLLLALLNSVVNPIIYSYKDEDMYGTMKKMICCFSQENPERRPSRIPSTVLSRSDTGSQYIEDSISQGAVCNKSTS
Experimental: as §1, §2

Chain of human recombinant LPA1 Lysophospholipid receptor (Q92633 whole entry): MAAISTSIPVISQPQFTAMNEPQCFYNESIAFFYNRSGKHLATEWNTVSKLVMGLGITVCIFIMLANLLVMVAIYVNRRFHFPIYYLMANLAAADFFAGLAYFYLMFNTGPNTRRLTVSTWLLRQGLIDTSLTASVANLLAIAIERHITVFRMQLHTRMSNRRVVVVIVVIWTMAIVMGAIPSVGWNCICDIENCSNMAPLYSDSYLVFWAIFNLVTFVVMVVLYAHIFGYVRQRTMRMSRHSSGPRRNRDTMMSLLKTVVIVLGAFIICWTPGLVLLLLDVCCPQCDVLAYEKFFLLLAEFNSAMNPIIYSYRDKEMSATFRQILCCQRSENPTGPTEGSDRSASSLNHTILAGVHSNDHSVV

Row | SMILES | inhibition at 30 µM [1] | inhibition at 30 µM (LPA3) | inhibition at 5 µM ([1]; @ 5 μM) | IC50 [1] | inhibition at 10 µM ([1]; @ 10 μM)
1 | COc1cc(OCc2ccccc2)ccc1C(=O)/C(=N\C1CCCC1)n1ncc(C#N)c1N [Example 11, (E)-5-Amino-1-(2-(4-benzyloxy-2-methoxyphenyl)-1-(cyclopentylimino)-2-oxoethyl)-1H-pyrazole-4-carbonitrile] | 48% | 23% | – | – | –
2 | COc1cc(C(=O)/C(=N\C2CCCC2)n2ncc(C#N)c2N)cc(OC)c1OC [Example 12, (E)-5-Amino-1-(1-(cyclopentylimino)-2-(3,4,5-trimethoxyphenyl)-2-oxoethyl)-1H-pyrazole-4-carbonitrile] | – | 14% | 13% | – | –
3 | COc1cc(F)ccc1C(=O)/C(=N\C1CCCC1)n1ncc(C#N)c1N [Example 4, (E)-5-Amino-1-(1-(cyclopentylimino)-2-(4-fluoro-2-methoxyphenyl)-2-oxoethyl)-1H-pyrazole-4-carbonitrile] | 49% | 3% | – | – | –
4 | COc1cc(OC)c(C(=O)/C(=N\C2CCCC2)n2ncc(C#N)c2N)cc1OC [Example 6, (E)-5-Amino-1-(1-(cyclopentylimino)-2-(2,4,5-trimethoxyphenyl)-2-oxoethyl)-1H-pyrazole-4-carbonitrile] | – | 7.5% | – | 3360 nM | 79.2%
5 | N#Cc1cnn(/C(=N/C2CCCC2)C(=O)c2ccc(Br)cc2)c1N [Example 3, (E)-5-Amino-1-(1-(cyclopentylimino)-2-(4-bromophenyl)-2-oxoethyl)-1H-pyrazole-4-carbonitrile] | 96% | < 1% | – | 2940 nM | –
6 | CCc1ccc(C(=O)/C(=N\C2CCCC2)n2ncc(C#N)c2N)cc1 [Example 2, (E)-5-Amino-1-(1-(cyclopentylimino)-2-(4-ethylphenyl)-2-oxoethyl)-1H-pyrazole-4-carbonitrile] | 100% | 13% | – | 586 nM | –
7 | COc1cc2c(cc1C(=O)/C(=N\C1CCCC1)n1ncc(C#N)c1N)CCC2 [Example 8, (E)-5-Amino-1-(1-(cyclopentylimino)-2-(6-methoxy-2,3-dihydro-1H-inden-5-yl)-2-oxoethyl)-1H-pyrazole-4-carbonitrile] | 78.4% | 19.1% | – | 825 nM | –
8 | COc1cc2ccccc2cc1C(=O)/C(=N\C1CCCC1)n1ncc(C#N)c1N [Example 7, (E)-5-Amino-1-(1-(cyclopentylimino)-2-(3-methoxynaphthalen-2-yl)-2-oxoethyl)-1H-pyrazole-4-carbonitrile] | 77.5% | 2% | – | 806 nM | –

The remaining lines, values ahead:

Row | inhibition at 30 µM [1] | inhibition at 30 µM (LPA3) | inhibition at 5 µM ([1]; @ 5 μM) | IC50 [1] | inhibition at 10 µM ([1]; @ 10 μM) | SMILES
9 | 88.2% | 21% | – | 111 nM | – | COc1ccc(C(=O)/C(=N\C(C)C)n2ncc(C#N)c2N)c(OC)c1 [Example 10, (E)-5-Amino-1-(2-(2,4-dimethoxyphenyl)-1-(iso-propylimino)-2-oxoethyl)-1H-pyrazole-4-carbonitrile]
10 | 84.9% | 29% | – | 510 nM | – | COc1ccc(C(=O)/C(=N\C2CCCCC2)n2ncc(C#N)c2N)c(OC)c1 [Example 9, (E)-5-Amino-1-(1-(cyclohexylimino)-2-(2,4-dimethoxyphenyl)-2-oxoethyl)-1H-pyrazole-4-carbonitrile]
11 | 99.8% | < 5% | – | 74 nM | – | COc1ccc(C(=O)/C(=N\C2CCCC2)n2ncc(C#N)c2N)c(F)c1 [Example 5, (E)-5-Amino-1-(1-(cyclopentylimino)-2-(2-fluoro-4-methoxyphenyl)-2-oxoethyl)-1H-pyrazole-4-carbonitrile]
12 | 98% | 22% | – | 79.8 nM | – | COc1ccc(C(=O)/C(=N\C2CCCC2)n2ncc(C#N)c2N)c(OC)c1 [Example 1, (E)-5-Amino-1-(1-(cyclopentylimino)-2-(2,4-dimethoxyphenyl)-2-oxoethyl)-1H-pyrazole-4-carbonitrile]
